Experimental data as given in article PMC3125419 (Journal of acquired immune deficiency syndromes (1999), 2011).
Read-outs that look alike come from different tables or passages of the source. Marks after values point to notes of the source that are not given here.

How the values were obtained:
[1] = cited from earlier work
[2] = clinical; details: female, human, in vivo
[3] = human, in vivo
[4] = clinical; details: female, human, in vivo; remark: listed apart in the source
[5] = system: HIV-1 RNA; test: Plasma viral load and infant HIV infection status; format: in vivo, human; details: for Undetectable (<20, 50, 75 or 400) plasma HIV-1 RNA, N (%): atazanavir/ritonavir-based regimen
[6] = female, human, in vivo
[7] = One-compartment model with first-order absorption and elimination; format: in vivo, human; details: median
[8] = with tenofovir, median (range), N=19

SMILES: Cc1cccc(C)c1OCC(=O)N[C@@H](Cc1ccccc1)[C@@H](O)C[C@H](Cc1ccccc1)NC(=O)[C@H](C(C)C)N1CCCNC1=O [lopinavir]
- AUC reduction during the third trimester ([1]; capsules at standard dosing (lopinavir 400 mg/ritonavir 100 mg twice daily)): 50%

SMILES: CC(C)(C)NC(=O)[C@@H]1CN(Cc2cccnc2)CCN1C[C@@H](O)C[C@@H](Cc1ccccc1)C(=O)N[C@H]1c2ccccc2C[C@H]1O [indinavir]
- AUC lower during pregnancy compared to postpartum ([1]; unboosted): 68%

SMILES: CC(C)(C)NC(=O)[C@@H]1C[C@@H]2CCCC[C@@H]2CN1C[C@@H](O)[C@H](Cc1ccccc1)NC(=O)[C@H](CC(N)=O)NC(=O)c1ccc2ccccc2n1 [saquinavir]
- pregnant subjects achieving adequate trough concentrations ([1]; saquinavir 1200 mg/ritonavir 100 mg once daily): 93%

SMILES: COC(=O)N[C@H](C(=O)N[C@@H](Cc1ccccc1)[C@@H](O)CN(Cc1ccc(-c2ccccn2)cc1)NC(=O)[C@@H](NC(=O)OC)C(C)(C)C)C(C)(C)C [Atazanavir]
- Kp [2]: 0.18
- concentration in cord blood [2]: 0.16 (<0.047 – 0.42) mcg/mL
- concentration in maternal delivery plasma [2]: 0.83 (0.11 - 2.36) mcg/mL
- ratio of concentration in cord blood to that in maternal delivery plasma [2]: 0.18 (0.04 – 0.45)
- additional reduction of AUC0-24 and Cmin when coadministered with tenofovir ([3]; female): 25%
- Tmax [4]: 4 h
- infants HIV-uninfected ([5]; 38 infants, status indeterminate for one): Thirty-seven
- Undetectable (<20, 50, 75 or 400) plasma HIV-1 RNA, N (%) ([5]; delivery, with tenofovir): 17 (89%) ^‡
- Undetectable (<20, 50, 75 or 400) plasma HIV-1 RNA, N (%) ([5]; delivery, with tenofovir, listed as atazanavir): 17 of 19
- Undetectable (<20, 50, 75 or 400) plasma HIV-1 RNA, N (%) ([5]; delivery, without tenofovir): 11 (69%) ^†
- Undetectable (<20, 50, 75 or 400) plasma HIV-1 RNA, N (%) ([5]; delivery, without tenofovir, listed as atazanavir): 11 of 16
- Undetectable (<20, 50, 75 or 400) plasma HIV-1 RNA, N (%) ([5]; postpartum, with tenofovir): 14 (100%) ^++
- Undetectable (<20, 50, 75 or 400) plasma HIV-1 RNA, N (%) ([5]; postpartum, without tenofovir): 8 (73%) ^+
- Undetectable (<20, 50, 75 or 400) plasma HIV-1 RNA, N (%) ([5]; third trimester, with tenofovir): 15 (79%) ^§
- Undetectable (<20, 50, 75 or 400) plasma HIV-1 RNA, N (%) ([5]; third trimester, without tenofovir): 13 (72%) ^**
- Postpartum plasma HIV-1 RNA ([5]; with tenofovir, median (range), N=14): <75 (<20 - <400) copies/mL
- Delivery plasma HIV-1 RNA [5, 8]: <75 (<20 – 116) copies/mL
- third trimester plasma HIV-1 RNA [5, 8]: <50 (<20 – 1630) copies/mL
- Delivery plasma HIV-1 RNA ([5]; without tenofovir, median (range), N=16): <62.5 (<50 - 29933) copies/mL
- third trimester plasma HIV-1 RNA ([5]; without tenofovir, median (range), N=18): <62.5 (<50 - 19314) copies/mL
- Grade 3 or 4 hyperbilirubinemia [6]: 14 subjects
- Grade 3 or 4 toxicities [6]: 16 subjects
- CL/F, one-compartment ([7]; with tenofovir, postpartum): 7.2 L/h
- CL/F, one-compartment ([7]; with tenofovir, second trimester): 14.5 L/h
- CL/F, one-compartment ([7]; with tenofovir, third trimester): 9.9 L/h
- CL/F, one-compartment ([7]; without tenofovir, postpartum): 4.9 L/h
- CL/F, one-compartment ([7]; without tenofovir, second trimester): 3.1 L/h
- CL/F, one-compartment ([7]; without tenofovir, third trimester): 6.7 L/h
- estimated 10th percentile AUC0-24 ([1]; non-pregnant adult populations, standard dose): 29400 ng·h/mL
- mean AUC ([1]; non-pregnant historical controls taking the standard dose): 57000 ng·h/mL
- geometric mean AUC ([1]; nonpregnant HIV infected adults): 46100 ng·h/mL
- AUC ([1]; postpartum, ref Eley, 10): 57200 ng·h/mL
- mean AUC ([1]; postpartum, ref Ripamonti, 9): 30500 ng·h/mL
- geometric mean AUC ([1]; third trimester, 12 women, ref Eley et al, 10): 26600 ng·h/mL

SMILES: CC(C)c1nc(CN(C)C(=O)N[C@H](C(=O)N[C@@H](Cc2ccccc2)C[C@H](O)[C@H](Cc2ccccc2)NC(=O)OCc2cncs2)C(C)C)cs1 [Ritonavir]
- Tmax ([3]; female): 4 (2 – 4) hr
- Vd/F ([3]; female): 34.2 L
- AUC0-24, C0, Cmax and C24 during the 3rd trimester compared to postpartum [3]: decreased
- CL/F [3]: 6.8 L/h
- Cl/F during the 3rd trimester compared to postpartum [3]: increased
- Tmax [4]: 6 h
